According to patent publication US10201510B2, “Compositions and methods for treatment of neurological symptoms associated with alcohol-withdrawal and for convulsive seizure” (Oregon Health & Science University, priority 2005, dated 2019):

Experiments:
[1] = target: T1, neuronal voltage-gated, L-type (Cav1.3) α1D subunit Ca^2+ channel (Rattus norvegicus, UniProt P27732); test: KCl-induced Ca^2+ signaling in fura-2 loaded PC12 cells; format: cell-based; details: for activity on neuronal L-type Ca^2+ channels compared with all-trans farnesol: non-NGF PC12 cells, fura-2, FIG. 1 / FIG. 3
T1 construct: KCl-induced intracellular Ca^2+ signaling in non-NGF treated PC12 cells loaded with fura-2; endogenous in cells; host or cells: PC12 cells (non-NGF treated)
Source text: According to particular aspects of the present invention, the alcohol group is essential for activity. Additionally, the activity of farnesol metabolites on neuronal voltage-gated L-type Ca^2+ channels was investigated. […] The Ca^2+ channel activity is expressed as % inhibition of KCl-induced intracellular Ca^2+ signaling in non-NGF differentiated PC12 cells loaded with fura-2 (see Materials and Methods under Example 2). The assayed molecules are: FPP—farnesyl pyrophosphate; FOH—all-trans farnesol; FCHO—all-trans farnesal; and FCOOH—all-trans farnesoic acid (prepared by Dr. McDougal).
(§1) To identify compounds with enhanced L-type Ca^2+ channel blocker activity, several compounds were either purchased or synthesized, and then tested for their ability to inhibit: (1) KCl-induced contraction in isolated arteries; (2) KCl-induced Ca^2+ signaling in fura-2 loaded arteries; and (3) KCl-induced Ca^2+ signaling in fura-2 loaded PC12 cells, all using art-recognized methods established in the applicants' laboratories (Roullet, 1993, 1994, 1995, 1997; De Lima, 1999). Arteries express smooth muscle voltage-gated, L-type (Cav1.2 or α1C subunit) Ca^2+ channels, whereas PC12 cells constitutively express the neuronal voltage-gated, L-type (Cav1.3) α1D subunit (Ertel, 2000).
Ca^2+ channel activity is expressed as % inhibition of KCl-induced intracellular Ca^2+ signaling in non-NGF treated PC12 cells loaded with fura-2.

ADH = test: Metabolism / substrate recognition by ADH; format: in vitro ADME
[2] = target: T2, smooth muscle voltage-gated, L-type (Cav1.2 or α1C subunit) Ca^2+ channels (Mus musculus, UniProt Q01815); test: KCl-induced contraction in isolated arteries; details: FIG. 5 / FIG. 6 (25 μM)
T2 construct: KCl-induced contraction in isolated arteries; from tissue; host or cells: mouse mesenteric arteries
T2 sequence (Q01815 whole entry): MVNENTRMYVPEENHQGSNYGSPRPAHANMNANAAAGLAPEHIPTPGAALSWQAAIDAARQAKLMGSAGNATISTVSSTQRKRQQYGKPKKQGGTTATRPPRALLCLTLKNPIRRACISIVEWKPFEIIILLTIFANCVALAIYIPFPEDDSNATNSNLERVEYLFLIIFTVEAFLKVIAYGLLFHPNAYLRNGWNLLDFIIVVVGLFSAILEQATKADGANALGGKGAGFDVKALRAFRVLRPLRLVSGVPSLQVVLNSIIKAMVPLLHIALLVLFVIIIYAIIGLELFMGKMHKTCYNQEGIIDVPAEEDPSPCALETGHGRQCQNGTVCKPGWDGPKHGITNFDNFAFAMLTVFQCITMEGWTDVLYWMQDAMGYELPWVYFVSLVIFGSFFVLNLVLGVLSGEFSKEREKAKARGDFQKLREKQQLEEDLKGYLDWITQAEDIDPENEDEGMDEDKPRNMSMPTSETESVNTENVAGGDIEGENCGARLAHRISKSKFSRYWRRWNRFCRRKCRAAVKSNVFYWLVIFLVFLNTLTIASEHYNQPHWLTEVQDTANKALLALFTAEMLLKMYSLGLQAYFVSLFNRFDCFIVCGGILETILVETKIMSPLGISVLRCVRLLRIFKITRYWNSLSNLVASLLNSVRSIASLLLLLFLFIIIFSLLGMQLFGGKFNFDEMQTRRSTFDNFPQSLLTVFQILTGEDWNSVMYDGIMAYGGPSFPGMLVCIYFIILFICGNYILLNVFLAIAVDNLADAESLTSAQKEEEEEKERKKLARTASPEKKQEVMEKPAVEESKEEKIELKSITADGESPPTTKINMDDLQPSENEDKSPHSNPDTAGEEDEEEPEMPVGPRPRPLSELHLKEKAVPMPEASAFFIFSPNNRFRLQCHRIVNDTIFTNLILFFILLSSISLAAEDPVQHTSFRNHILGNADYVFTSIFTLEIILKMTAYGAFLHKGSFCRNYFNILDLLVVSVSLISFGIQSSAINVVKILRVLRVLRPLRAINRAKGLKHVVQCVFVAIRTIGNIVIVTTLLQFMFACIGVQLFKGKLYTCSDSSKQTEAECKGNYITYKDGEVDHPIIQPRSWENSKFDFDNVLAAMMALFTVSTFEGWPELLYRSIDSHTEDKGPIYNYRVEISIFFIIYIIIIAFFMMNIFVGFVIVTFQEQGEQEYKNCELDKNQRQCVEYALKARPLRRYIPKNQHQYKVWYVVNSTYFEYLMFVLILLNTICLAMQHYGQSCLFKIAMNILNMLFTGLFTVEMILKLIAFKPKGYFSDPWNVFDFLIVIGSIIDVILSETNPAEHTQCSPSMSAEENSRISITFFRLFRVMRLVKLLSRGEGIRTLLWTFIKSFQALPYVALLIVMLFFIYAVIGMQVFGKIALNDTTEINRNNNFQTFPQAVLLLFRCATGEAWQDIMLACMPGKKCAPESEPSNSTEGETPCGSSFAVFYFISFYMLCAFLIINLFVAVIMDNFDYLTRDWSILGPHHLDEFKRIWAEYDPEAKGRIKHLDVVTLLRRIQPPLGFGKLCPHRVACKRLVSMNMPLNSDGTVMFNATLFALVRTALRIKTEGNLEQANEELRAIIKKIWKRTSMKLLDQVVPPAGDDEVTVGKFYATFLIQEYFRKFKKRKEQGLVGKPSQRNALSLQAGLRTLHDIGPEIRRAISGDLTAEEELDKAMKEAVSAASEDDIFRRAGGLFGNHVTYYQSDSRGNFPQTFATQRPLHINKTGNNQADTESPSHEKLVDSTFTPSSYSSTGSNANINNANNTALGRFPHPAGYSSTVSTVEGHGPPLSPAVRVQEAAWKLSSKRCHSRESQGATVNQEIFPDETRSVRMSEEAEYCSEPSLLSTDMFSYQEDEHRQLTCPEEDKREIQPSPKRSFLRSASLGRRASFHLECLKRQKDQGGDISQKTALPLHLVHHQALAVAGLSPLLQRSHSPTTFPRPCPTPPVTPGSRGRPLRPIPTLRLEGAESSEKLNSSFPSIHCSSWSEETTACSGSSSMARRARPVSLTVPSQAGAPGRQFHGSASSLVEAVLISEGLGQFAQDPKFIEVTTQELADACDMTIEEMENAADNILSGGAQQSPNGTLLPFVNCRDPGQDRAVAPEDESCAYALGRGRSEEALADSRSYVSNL
T2 sequence (P54285 whole entry partner): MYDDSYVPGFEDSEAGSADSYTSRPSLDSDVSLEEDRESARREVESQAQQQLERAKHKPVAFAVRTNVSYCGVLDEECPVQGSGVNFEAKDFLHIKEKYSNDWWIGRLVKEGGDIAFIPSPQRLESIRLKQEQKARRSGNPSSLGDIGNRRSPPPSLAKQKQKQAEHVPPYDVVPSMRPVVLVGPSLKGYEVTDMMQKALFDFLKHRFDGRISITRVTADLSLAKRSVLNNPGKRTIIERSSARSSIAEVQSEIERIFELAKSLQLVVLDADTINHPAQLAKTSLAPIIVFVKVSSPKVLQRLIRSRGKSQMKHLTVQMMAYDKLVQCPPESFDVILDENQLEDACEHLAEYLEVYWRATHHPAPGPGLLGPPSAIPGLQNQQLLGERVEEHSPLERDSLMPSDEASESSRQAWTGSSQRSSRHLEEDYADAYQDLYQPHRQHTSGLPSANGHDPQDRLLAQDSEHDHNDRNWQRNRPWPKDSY
T2 sequence (O08532 25-956 partner limits assumed): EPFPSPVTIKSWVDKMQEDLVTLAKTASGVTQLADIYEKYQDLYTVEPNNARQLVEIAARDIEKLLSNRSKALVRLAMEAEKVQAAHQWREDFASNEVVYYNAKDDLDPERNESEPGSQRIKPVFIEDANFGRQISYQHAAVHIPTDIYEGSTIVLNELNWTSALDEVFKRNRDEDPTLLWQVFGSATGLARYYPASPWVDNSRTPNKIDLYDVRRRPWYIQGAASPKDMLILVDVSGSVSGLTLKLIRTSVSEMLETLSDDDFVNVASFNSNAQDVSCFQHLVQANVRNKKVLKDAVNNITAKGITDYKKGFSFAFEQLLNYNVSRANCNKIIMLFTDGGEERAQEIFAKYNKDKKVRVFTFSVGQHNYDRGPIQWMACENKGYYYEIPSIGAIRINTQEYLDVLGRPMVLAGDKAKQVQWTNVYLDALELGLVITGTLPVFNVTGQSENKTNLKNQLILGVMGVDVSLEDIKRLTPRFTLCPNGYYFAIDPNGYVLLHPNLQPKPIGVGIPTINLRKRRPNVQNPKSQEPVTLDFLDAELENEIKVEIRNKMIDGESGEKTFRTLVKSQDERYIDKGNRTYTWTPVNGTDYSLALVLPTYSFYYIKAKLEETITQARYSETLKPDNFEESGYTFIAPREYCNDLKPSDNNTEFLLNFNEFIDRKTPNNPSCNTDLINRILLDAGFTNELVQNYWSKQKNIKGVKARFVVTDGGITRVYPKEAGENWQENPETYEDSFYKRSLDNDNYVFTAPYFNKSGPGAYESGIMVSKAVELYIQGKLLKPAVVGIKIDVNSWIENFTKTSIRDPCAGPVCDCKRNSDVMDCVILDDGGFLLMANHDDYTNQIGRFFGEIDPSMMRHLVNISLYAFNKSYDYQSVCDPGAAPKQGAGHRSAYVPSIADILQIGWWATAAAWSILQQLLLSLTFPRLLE
T2 sequence (O08532 957-1103 partner limits assumed): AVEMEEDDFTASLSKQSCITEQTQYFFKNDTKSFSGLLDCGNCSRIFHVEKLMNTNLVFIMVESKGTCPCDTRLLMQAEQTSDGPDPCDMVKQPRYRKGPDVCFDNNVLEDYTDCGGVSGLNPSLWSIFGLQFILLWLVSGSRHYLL
Procedure: Contractions obtained after 30 min. incubation with the test compounds (left portion of graph), and after a 60-min. wash-out (right portion of graph).
as §1

[3] = target: T3, voltage-gated L-type Ca^2+ channels (Homo sapiens, UniProt Q13936); details: cited from earlier work
T3 construct: host or cells: arteries / vascular smooth muscle cells

[4] = test system: withdrawal seizures in alcohol-dependent mice; test: Predicted anti-seizure activity; format: in vivo, mouse; design: key: la = long-acting; The ++ farnesol activity was arbitrary; details: duration flag in brackets
microsomal FolDH = test: Recognition by microsomal FolDH; format: in vitro ADME

In the case of `CC(C)=CCC/C(C)=C/CC/C(C)=C\CO` [“Cis” farnesol, (2Z,6E)-3,7,11-trimethyldodeca-2,6,10-trien-1-ol], the “activity on neuronal L-type Ca^2+ channels compared with all-trans farnesol” value (shortened to “activity … compared with all-trans farnesol”) [1] was “significantly more active”, the “catalytic efficiency of ADH, lower than toward all-trans farnesol” value (ADH) was “approximately 10 fold” and the “activity on KCl-induced arterial contraction” value [2] was “significantly more active”.
For `CC(C)=CCC/C(C)=C/CC/C(C)=C/CC/C(C)=C/CO` [geranylgeraniol, reference compound], the “activity on Ca^2+ channels / smooth muscle L-type channels (literature / prior studies)” value [3] is listed as “inactive”.
For `CC(C)=CCC/C(C)=C/CC/C(=C\CO)C(F)(F)F` [Trifluorofarnesol, (2E,6E)-,7,11-dimethyl-3-(trifluoromethyl)dodeca-2,6,10-trien-1-ol], the “Predicted anti-seizure activity: long-acting (la)” value [4] was “la”.
In the case of `CC(C)=CCC/C(C)=C/CC/C(C)=C/COP(=O)(O)OP(=O)(O)O` [farnesyl-PP, farnesyl pyrophosphate, reference compound], the “activity … compared with all-trans farnesol” value [1] was “substantially inactive”.
In the case of `CC(C)=CCC/C(C)=C/CC/C(C)=C/C(=O)O` [farnesoic acid, all-trans farnesoic acid, reference compound], the “activity … compared with all-trans farnesol” value [1] was “substantially inactive”.
With `C=CC(C)(O)CCC=C(C)CCC=C(C)C` (mixture of isomers) [Nerolidol, (E)-3,7,11-trimethyldodeca-1,6,10-trien-3-ol] the “Predicted anti-seizure activity: long-acting (la)” value [4] was “la”, the “recognition by microsomal FolDH” value (microsomal FolDH) was “not recognized by microsomal FolDH” and the “block of KCl-induced Ca^2+ signaling” value ([1]; PC12 cells in culture, n=3/group, FIG. 3) was ~85%. For the same compound, the “substrate for ADH” value (ADH) was “not a substrate for ADH”.
In the case of `CC(C)=CCCC(C)=CCCC(C)=CC=O` [FCHO, all-trans farnesal, reference compound], the “activity … compared with all-trans farnesol” value [1] was “significantly less activity than FOH”.
For `CC(C)=CCC/C(C)=C/CO` [geraniol, reference compound], the “activity on Ca^2+ channels / smooth muscle L-type channels (literature / prior studies)” value [3] is listed as “inactive”.
With `CC(=O)OCC=C(C)CCC=C(C)CCC=C(C)C` [farnesyl acetate] the “activity on KCl-induced arterial contraction” value [2] was “did not showed significant activity”.
For `COCC=C(C)CCC=C(C)CCC=C(C)C` [farnesyl methyl ether], the “activity on KCl-induced arterial contraction” value [2] was “did not showed significant activity”.
With `CC(C)=CCCC(C)=CCCC(C)=CCBr` [Farnesyl bromide] the “activity on KCl-induced arterial contraction” value [2] was “did not showed significant activity”.
For `CC(=O)CCC=C(C)CCC=C(C)CCC=C(C)C` [farnesylacetone], the “activity on KCl-induced arterial contraction” value [2] was “did not showed significant activity”.
